Test results taken from patent US20190175507A1, “COMPOSITIONS FOR ORAL ADMINISTRATION OF ACTIVE AGENTS” (Tamarisk Technologies Group LLC, priority 2016, published 2019).

Assay: Pharmacokinetics of resveratrol-containing particles in orally dosed Sprague-Dawley rats
Format: in vivo
Conditions: rat, plasma, 20 mg/kg
Protocol: Parameters were estimated using Watson pharmacokinetic software 7.4.2 (Thermo Electron Corporation) using a non-compartmental approach consistent with the various routes of administration. All parameters were generated from […] individual animal concentrations in plasma. Parameters were estimated using nominal sampling times to be relative to the start of each dose administration (within an acceptable tolerance limit). As no dose formulation samples were analyzed, the nominal calculated dose for active ingredient (20 mg/kg, as per the study protocol, was used for dose-normalization purposes). The area under the test item concentration versus time curve (AUC) was calculated using the linear-log linear trapezoidal method. AUC was not calculated for PK profiles with less than 3 consecutive quantifiable concentrations of test article at separate time points. When practical, the terminal elimination phase of each concentration versus time curve was identified using at least the final three observed concentration values. The slope of the terminal elimination phase was determined using linear regression on the unweighted concentration data. […] The parameters described below were reported to 3 significant figures. Animals were fasted overnight, food was returned 4 hours post dosing. […] Aggregated data is summarized for individual animals in Table 4, below.

concentration at 0.5 h (oral): 78.4 ng/mL
concentration at 1 h (oral): 29.3 ng/mL
concentration at 2 h (oral): 47.2 ng/mL
Cmax (po): 82.4 ng/mL
AUC (po, read-out: AUC(0-x)): 82.8 ng·h/mL
Compound: Oc1ccc(C=Cc2cc(O)cc(O)c2)cc1 [Unencapsulated Resveratrol, Resveratrol]
